Assay results as given in US12655116B2, “Substituted isophthalic acid diamides” (Bayer Aktiengesellschaft, priority 2020, dated 2026).

Assays:
[1] = system: ECHCG; assay: Post-emergence herbicidal action against ECHCG; type: in vivo, Echinochloa crus-galli
How it was run: (§1)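 A WP or EC formulation diluted in water with 0.2% wetting agent was sprayed at 600 to 800 l/ha onto one-leaf-stage plants grown in sandy loam. About 3 weeks later, action was rated visually in percent, 100% being dead plants.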

[2] = system: MATIN; assay: Pre-emergence herbicidal action against MATIN; type: in vivo, Matricaria inodora
How it was run: (§2)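 Greenhouse pots of sandy loam held seeds covered with soil, onto which the compound was applied before emergence. An aqueous suspension or emulsion of WP or EC was used at 600 to 800 l/ha with 0.2% wetting agent. Percent damage was judged visually at 3 weeks.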

[3] = system: SETVI; assay: Pre-emergence herbicidal action against SETVI; type: in vivo, Setaria viridis
How it was run: as §2

[4] = system: POLCO; assay: Pre-emergence herbicidal action against POLCO; type: in vivo, Polygonum convolvulus; conditions: dosage 80 g/ha
How it was run: as §2

[5] = system: MATIN; assay: Post-emergence herbicidal action against MATIN; type: in vivo, Matricaria inodora
How it was run: as §1

[6] = system: ECHCG; assay: Pre-emergence herbicidal action against ECHCG; type: in vivo, Echinochloa crus-galli
How it was run: as §2

[7] = system: AMARE; assay: Post-emergence herbicidal action against AMARE; type: in vivo, Amaranthus retroflexus; conditions: 20 g/ha, visual assessment about 3 weeks after treatment, 100% = plants have died, 0% = like control plants
How it was run: as §1

[8] = system: SETVI; assay: Post-emergence herbicidal action against SETVI; type: in vivo, Setaria viridis
How it was run: as §1

[9] = system: DIGSA; assay: Pre-emergence herbicidal action against DIGSA; type: in vivo, Digitaria sanguinalis
How it was run: as §2

[10] = system: ABUTH; assay: Post-emergence herbicidal action against ABUTH; type: in vivo, Abutilon theophrasti; conditions: visual assessment about 3 weeks after treatment vs untreated controls
How it was run: as §1

[11] = system: PHBPU; assay: Post-emergence herbicidal action against PHBPU; type: in vivo, Pharbitis purpurea; conditions: dosage 20 g/ha
How it was run: as §1

[12] = system: DIGSA; assay: Post-emergence herbicidal action against DIGSA; type: in vivo, Digitaria sanguinalis
How it was run: as §1

[13] = system: ABUTH; assay: Pre-emergence herbicidal action against ABUTH; type: in vivo, Abutilon theophrasti
How it was run: as §2

[14] = system: VERPE; assay: Pre-emergence herbicidal action against VERPE; type: in vivo, Veronica persica; conditions: dosage 80 g/ha
How it was run: as §2

[15] = system: VERPE; assay: Post-emergence herbicidal action against VERPE; type: in vivo, Veronica persica; conditions: 20 g/ha
How it was run: as §1

[16] = system: VIOTR; assay: Pre-emergence herbicidal action against VIOTR; type: in vivo, Viola tricolor
How it was run: as §2

[17] = system: PHBPU; assay: Pre-emergence herbicidal action against PHBPU; type: in vivo, Pharbitis purpurea; conditions: dosage 80 g/ha
How it was run: as §2

[18] = system: VIOTR; assay: Post-emergence herbicidal action against VIOTR; type: in vivo, Viola tricolor
How it was run: as §1

[19] = system: AMARE; assay: Pre-emergence herbicidal action against AMARE; type: in vivo, Amaranthus retroflexus
How it was run: as §2

[20] = Tripleurospermum inodorum, 504 h, dosage 20 g/ha
[21] = Setaria viridis, 504 h, dosage 20 g/ha
[22] = 80 g/ha, scored visually after 3 weeks vs untreated controls (100% = plants have died, 0% = like control plants)

CCNC(=O)c1c(C(F)F)ccc(C(=O)Nc2nnnn2C)c1C1CC1 [Example 1-305]
pest or weed control at 20 g/ha ([1]; Echinochloa crus-galli, 504 h, dosage 20 g/ha): 90%
pest or weed control at 20 g/ha [2, 20]: 100%
pest or weed control at 80 g/ha ([2]; Tripleurospermum inodorum, 504 h, dosage 80 g/ha): 100%
pest or weed control at 20 g/ha [3, 21]: 80%
pest or weed control at 80 g/ha ([3]; Setaria viridis, 504 h, dosage 80 g/ha): 100%
pest or weed control at 80 g/ha ([4]; Fallopia convolvulus, 504 h): 80%
pest or weed control at 5 g/ha ([5]; Tripleurospermum inodorum, 504 h, dosage 5 g/ha): 90%
pest or weed control at 20 g/ha [5, 20]: 90%
pest or weed control at 20 g/ha ([6]; Echinochloa crus-galli, 504 h, 20 g/ha): 80%
pest or weed control at 80 g/ha ([6]; Echinochloa crus-galli, 504 h, 80 g/ha): 100%
pest or weed control at 20 g/ha ([7]; Amaranthus retroflexus, 504 h): 90%
pest or weed control at 20 g/ha [8, 21]: 90%
pest or weed control at 20 g/ha ([9]; Digitaria sanguinalis, 504 h, dosage 20 g/ha): 100%
pest or weed control at 80 g/ha ([9]; Digitaria sanguinalis, 504 h, dosage 80 g/ha): 100%
pest or weed control at 5 g/ha ([10]; Abutilon theophrasti, 504 h, dosage 5 g/ha): 90%
pest or weed control at 20 g/ha ([10]; Abutilon theophrasti, 504 h, dosage 20 g/ha): 90%
pest or weed control at 20 g/ha ([11]; Ipomoea purpurea, 504 h): 90%
pest or weed control at 20 g/ha ([12]; Digitaria sanguinalis, 504 h, 20 g/ha): 80%
pest or weed control at 80 g/ha ([13]; Abutilon theophrasti, 504 h, 80 g/ha, scored visually after 3 weeks vs untreated controls (100% = plants have died, 0% = like control plants)): 100%
pest or weed control at 20 g/ha ([13]; Abutilon theophrasti, 504 h, dosage 20 g/ha, scored visually after 3 weeks vs untreated controls, 100% = plants have died, 0% = like control plants, read-out: Pre-emergence action against ABUTH (herbicidal activity in percent)): 100%
pest or weed control at 80 g/ha ([14]; Veronica persica, 504 h): 100%
pest or weed control at 20 g/ha ([15]; Veronica persica, 504 h): 80%
pest or weed control at 20 g/ha ([16]; Viola tricolor, 504 h, dosage 20 g/ha): 100%
pest or weed control at 80 g/ha ([16]; Viola tricolor, 504 h, dosage 80 g/ha): 100%
pest or weed control at 80 g/ha ([17]; Ipomoea purpurea, 504 h): 90%
pest or weed control at 5 g/ha ([18]; Viola tricolor, 504 h, 5 g/ha): 90%
pest or weed control at 20 g/ha ([18]; Viola tricolor, 504 h, 20 g/ha): 90%
pest or weed control at 20 g/ha ([19]; Amaranthus retroflexus, 504 h, 20 g/ha, scored visually after 3 weeks vs untreated controls, 100% = plants have died, 0% = like control plants): 100%
pest or weed control at 80 g/ha ([19]; Amaranthus retroflexus, 504 h, 80 g/ha, scored visually after 3 weeks vs untreated controls, 100% = plants have died, 0% = like control plants): 100%

CCn1nnnc1NC(=O)c1ccc(C(F)F)c(C(=O)NC2CC2)c1C1CC1 [Example 2-306]
Post-emergence action against ECHCG in % ([1]; dosage 5 g/ha): 90%
Post-emergence action against ECHCG in % ([1]; dosage 20 g/ha): 90%
Pre-emergence action against MATIN in % ([2]; dosage 20 g/ha): 90%
Pre-emergence action against MATIN in % ([2]; dosage 80 g/ha): 100%
Pre-emergence action against SETVI in % ([3]; dosage 80 g/ha): 100%
Pre-emergence action against POLCO in % [4]: 80%
Post-emergence action against MATIN in % ([5]; dosage 5 g/ha): 80%
Post-emergence action against MATIN in % ([5]; dosage 20 g/ha): 90%
Pre-emergence action against ECHCG in % ([6]; 80 g/ha): 100%
Post-emergence action at 20 g/ha against AMARE in % [7]: 90%
Post-emergence action against SETVI in % ([8]; dosage 5 g/ha): 80%
Post-emergence action against SETVI in % ([8]; dosage 20 g/ha): 80%
Pre-emergence action against DIGSA in % ([9]; dosage 20 g/ha): 100%
Pre-emergence action against DIGSA in % ([9]; dosage 80 g/ha): 100%
Post-emergence action against ABUTH in % ([10]; dosage 20 g/ha): 80%
Post-emergence action against PHBPU in % [11]: 80%
Post-emergence action against DIGSA in % ([12]; 5 g/ha): 80%
Post-emergence action against DIGSA ([12]; 20 g/ha): 90%
Pre-emergence action against ABUTH (herbicidal activity) [13, 22]: 100%
Pre-emergence action against ABUTH (herbicidal activity in percent) ([13]; dosage 20 g/ha, scored visually after 3 weeks vs untreated controls, 100% = plants have died, 0% = like control plants): 100%
Pre-emergence action against VERPE in % [14]: 100%
Post-emergence action against VERPE in % [15]: 90%
Pre-emergence action against VIOTR in % ([16]; dosage 20 g/ha): 100%
Pre-emergence action against VIOTR in % ([16]; dosage 80 g/ha): 100%
Pre-emergence action against PHBPU in % [17]: 100%
Post-emergence action against VIOTR in % ([18]; 5 g/ha): 90%
Post-emergence action against VIOTR in % ([18]; 20 g/ha): 90%
Pre-emergence action against AMARE in % ([19]; 20 g/ha, scored visually after 3 weeks vs untreated controls, 100% = plants have died, 0% = like control plants): 90%
Pre-emergence action against AMARE in % [19, 22]: 100%
